Experimental data as given in US9249125B2, “Pyrazole derivatives as p38 MAP inhibitors” (RESPIVERT LIMITED, priority 2012, dated 2016).

Legend:
[1] = tested on: d-U937 cells; experiment: Cell viability: MTT assay; format: cell-based, human; details: 1 μg/mL
Method in brief: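 MTT read-out (1 h, absorbance 550 nm) on d-U937 cells after pre-incubation with 1 or 10 μg/mL compound under two regimes: 4 h, 5% FCS, or 24 h, 10% FCS RPMI1640. Values are percent loss of viability relative to vehicle (0.5% DMSO), so increases are reported as negative.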

[2] = tested on: LPS-induced IL-8 release in d-U937 cells; experiment: LPS-induced IL-8 release in d-U937 cells; format: cell-based; details: Homo sapiens, dU937, read-out: LPS Induced Release of Cytokine in d-937 Cells IL-8 IC50
Method in brief: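 Read-out: TNFα and IL-8 released into supernatant, sandwich ELISA, expressed as inhibition versus vehicle at each dose and fitted to give REC50. Cells were PMA-differentiated U937 (100 ng/mL, 48–72 hr), compound-exposed 2 hr before a 4 hr LPS stimulus (0.1 μg/mL).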

[3] = molecular target: p38 MAPKα (Homo sapiens (Human), UniProt Q16539); experiment: p38 MAPKα enzyme inhibition (FRET, Z-LYTE); format: biochemical
p38 MAPKα, sequence (Q16539 whole entry): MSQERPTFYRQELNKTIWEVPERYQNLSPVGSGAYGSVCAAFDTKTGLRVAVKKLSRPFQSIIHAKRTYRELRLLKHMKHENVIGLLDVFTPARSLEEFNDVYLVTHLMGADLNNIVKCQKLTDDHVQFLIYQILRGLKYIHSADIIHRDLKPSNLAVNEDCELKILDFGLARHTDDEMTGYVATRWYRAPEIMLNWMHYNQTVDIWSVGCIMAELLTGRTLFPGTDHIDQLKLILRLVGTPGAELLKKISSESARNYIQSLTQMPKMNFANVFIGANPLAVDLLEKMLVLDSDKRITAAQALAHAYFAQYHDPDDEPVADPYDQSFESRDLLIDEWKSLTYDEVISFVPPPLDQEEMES

[4] = tested on: LPS-induced TNFα release in d-U937 cells; experiment: LPS-induced TNFα release in d-U937 cells; format: cell-based; details: Homo sapiens, dU937, relative to 10 μg/mL BIRB796, read-out: LPS Induced Release of Cytokine in d-937 Cells TNFα REC50
Method in brief: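 Sandwich ELISA of culture supernatant gives TNFα and IL-8 levels after a 4 hr challenge with LPS (0.1 μg/mL, E. coli O111:B4). Before stimulation, macrophage-like U937 cells, obtained by 48–72 hr in PMA at 100 ng/mL, sit with compound for 2 hr. Relative EC50 is derived from concentration-response data.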

[5] = molecular target: GSK3α (Homo sapiens (Human), UniProt P49840); experiment: GSK 3α enzyme inhibition (FRET, Z-LYTE); format: biochemical
GSK3α, sequence (P49840 whole entry): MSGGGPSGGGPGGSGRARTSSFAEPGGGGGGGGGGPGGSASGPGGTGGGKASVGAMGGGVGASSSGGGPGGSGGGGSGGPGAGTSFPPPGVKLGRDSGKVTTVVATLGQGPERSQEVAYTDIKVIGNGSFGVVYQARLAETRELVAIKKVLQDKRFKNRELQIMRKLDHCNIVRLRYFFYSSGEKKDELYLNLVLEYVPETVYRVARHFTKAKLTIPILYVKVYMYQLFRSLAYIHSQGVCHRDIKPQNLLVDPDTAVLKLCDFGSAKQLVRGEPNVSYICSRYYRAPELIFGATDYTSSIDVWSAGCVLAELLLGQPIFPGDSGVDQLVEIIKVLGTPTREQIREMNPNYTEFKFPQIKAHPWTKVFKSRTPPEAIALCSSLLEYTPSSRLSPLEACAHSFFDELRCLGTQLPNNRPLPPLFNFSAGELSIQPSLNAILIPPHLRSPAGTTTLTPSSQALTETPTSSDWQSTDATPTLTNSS
Method in brief: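 Phosphorylation was read as the donor (coumarin) to acceptor (fluorescein) ratio after a 1 hr protease step destroying non-phosphorylated peptide. Before this, compound (4–0.004 μg/mL stocks) sat 2 hr at RT with GSK3α (500 ng/mL stock), followed by 1 hr kinase reaction with 8 μM peptide and 40 μM ATP stocks.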

[6] = molecular target: cSrc (Homo sapiens (Human), UniProt P12931); experiment: c-Src enzyme inhibition (FRET, Z-LYTE); format: biochemical
cSrc, sequence (P12931 whole entry, looked up): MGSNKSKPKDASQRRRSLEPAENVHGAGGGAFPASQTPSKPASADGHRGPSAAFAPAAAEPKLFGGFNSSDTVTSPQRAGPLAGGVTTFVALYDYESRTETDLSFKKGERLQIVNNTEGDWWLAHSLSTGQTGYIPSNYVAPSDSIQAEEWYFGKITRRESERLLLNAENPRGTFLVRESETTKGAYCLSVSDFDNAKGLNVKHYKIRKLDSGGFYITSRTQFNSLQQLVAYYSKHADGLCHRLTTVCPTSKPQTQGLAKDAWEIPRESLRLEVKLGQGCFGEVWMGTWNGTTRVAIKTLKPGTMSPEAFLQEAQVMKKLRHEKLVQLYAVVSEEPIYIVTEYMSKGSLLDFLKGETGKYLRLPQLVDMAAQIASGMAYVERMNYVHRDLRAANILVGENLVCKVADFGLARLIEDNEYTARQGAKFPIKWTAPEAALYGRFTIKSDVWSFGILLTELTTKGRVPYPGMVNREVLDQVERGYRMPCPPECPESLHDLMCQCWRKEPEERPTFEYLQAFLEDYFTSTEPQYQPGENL
Method in brief: (§1)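 Z-LYTE FRET kinase assay: enzyme (3000 or 2000 ng/mL stock, respectively) preincubated 2 h at RT with compound (4–0.004 μg/mL stocks), then FRET peptide plus ATP (800 μM stock for c-Src, 60 μM for Syk) added for 1 h. Protease development 1 h; phosphorylation from coumarin/fluorescein emission ratio.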

[7] = molecular target: Syk (Homo sapiens (Human), UniProt P43405); experiment: Syk enzyme inhibition (FRET, Z-LYTE); format: biochemical
Method in brief: as §1

[8] = tested on: Poly I:C-induced ICAM-1 expression in BEAS2B cells; experiment: Poly I:C-induced ICAM-1 expression in BEAS2B cells; format: cell-based; details: Homo sapiens, BEAS-2B, read-out: Poly IC induced ICAM1 in BEAS2B IC50
Method in brief: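 Cell-based ELISA read at 450 nm minus 655 nm, divided by crystal violet OD595 to normalize for cell number, gave ICAM-1 levels. Readout was taken 18 hr after poly I:C (1 μg/mL, Oligofectamine) transfection of human bronchial BEAS2B cells pretreated 2 hr with test compound.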

IC50 [2] [nM]	IC50 [3] [nM]	EC50 [4] [nM]	IC50 [5] [nM]	IC50 [6] [nM]	IC50 [7] [nM]	Compound	MTT Assay Cell viability at time point in d-U937 cells 4 h [1]	MTT Assay Cell viability at time point in d-U937 cells 24 h [1]	IC50 [8] [nM]
2.2	145	2.2	> 15700	12	180	Cc1ccc(-n2nc(C(C)(C)C)cc2NC(=O)Nc2ccc(Oc3ccnc(Nc4ccc5c(cnn5C)c4)n3)c3ccccc23)cc1 [Example 26, 1-(3-(tert-butyl)-1-(p-tolyl)-1H-pyrazol-5-yl)-3-(4-((2-((1-methyl-1H-indazol-5-yl)amino)pyrimidin-4-yl)oxy)naphthalen-1-yl)urea]	−ve (−ve and +ve indicate that the value is below and above respectively, the no significant effect threshold, defined as 30% inhibition at 1 μg/mL at the time point indicated.)	−ve (−ve and +ve indicate that the value is below and above respectively, the no significant effect threshold, defined as 30% inhibition at 1 μg/mL at the time point indicated.)	2.3
0.7	263	2	> 1570	11	17	Cc1ccc(-n2nc(C(C)(C)C)cc2NC(=O)Nc2ccc(Oc3ccnc(Nc4cc(C)c5[nH]ncc5c4)n3)c3ccccc23)cc1 [Example 27, 1-(3-(tert-butyl)-1-(p-tolyl)-1H-pyrazol-5-yl)-3-(4-((2-((7-methyl-1H-indazol-5-yl)amino)pyrimidin-4-yl)oxy)naphthalen-1-yl)urea]	−ve (−ve and +ve indicate that the value is below and above respectively, the no significant effect threshold, defined as 30% inhibition at 1 μg/mL at the time point indicated.)	−ve (−ve and +ve indicate that the value is below and above respectively, the no significant effect threshold, defined as 30% inhibition at 1 μg/mL at the time point indicated.)	2.4
12.4	149	10.5	730	8	36	CC(C)(C)c1cc(NC(=O)Nc2ccc(Oc3ccnc(Nc4ccc5scnc5c4)n3)c3ccccc23)n(-c2ccc(OCCN3CCOCC3)cc2)n1 [Example 79, 1-(4-((2-(benzo[d]thiazol-5-ylamino)pyrimidin-4-yl)oxy)naphthalen-1-yl)-3-(3-(tert-butyl)-1-(4-(2-morpholinoethoxy)phenyl)-1H-pyrazol-5-yl)urea]	−ve (−ve and +ve indicate that the value is below and above respectively, the no significant effect threshold, defined as 30% inhibition at 1 μg/mL at the time point indicated.)	−ve (−ve and +ve indicate that the value is below and above respectively, the no significant effect threshold, defined as 30% inhibition at 1 μg/mL at the time point indicated.)	7
123	128	1.6	> 15300	16	81	COc1ccc(-n2nc(C(C)(C)C)cc2NC(=O)Nc2ccc(Oc3ccnc(Nc4ccc5c(cnn5C)c4)n3)c3ccccc23)cc1 [Example 41, 1-(3-(tert-butyl)-1-(4-methoxyphenyl)-1H-pyrazol-5-yl)-3-(4-((2-((1-methyl-1H-indazol-5-yl)amino)pyrimidin-4-yl)oxy)naphthalen-1-yl)urea]	+ve (−ve and +ve indicate that the value is below and above respectively, the no significant effect threshold, defined as 30% inhibition at 1 μg/mL at the time point indicated.)	−ve (−ve and +ve indicate that the value is below and above respectively, the no significant effect threshold, defined as 30% inhibition at 1 μg/mL at the time point indicated.)	1.9
